This is an account of results in BindingDB's records for doi:10.7270/Q2S46Q8P (The Scripps Research Institute Molecular Screening Center, 2007).

pIC50: −log10 of the molar value.

In the first test the target is T1, 5-hydroxytryptamine receptor 1A (Homo sapiens, UniProt P08908).
T1 sequence (P08908 whole entry): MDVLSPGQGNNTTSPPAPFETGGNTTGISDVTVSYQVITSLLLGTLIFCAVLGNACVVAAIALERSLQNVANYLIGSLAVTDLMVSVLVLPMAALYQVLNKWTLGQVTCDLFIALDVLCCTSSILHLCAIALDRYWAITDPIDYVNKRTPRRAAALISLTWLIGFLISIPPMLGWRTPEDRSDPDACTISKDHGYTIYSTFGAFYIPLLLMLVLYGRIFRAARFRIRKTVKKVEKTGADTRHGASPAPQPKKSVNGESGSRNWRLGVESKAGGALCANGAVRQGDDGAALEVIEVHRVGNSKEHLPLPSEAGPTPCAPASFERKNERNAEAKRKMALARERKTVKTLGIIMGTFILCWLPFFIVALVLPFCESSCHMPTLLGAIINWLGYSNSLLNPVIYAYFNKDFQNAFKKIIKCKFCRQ
As to the kind of experiment: serotonin 1A receptor activation, dose response (AID 718). The conditions noted are these: inactive by the depositor's call; pH 7.4; 23 °C.
The term pIC50 denotes the negative decadic logarithm of the IC50, by convention in mol/L. A high value points to a low IC50. For `CC(C)=CCC(C)(C)CNC(=O)NC1CCCCC1`, the pIC50 is 4.40.

Compound `CCCOCCOC(=O)c1[nH]c2c(c1C)C(=O)CC(c1cc(OC)ccc1OC)C2` (configuration not stated) gave a pIC50 of 4.40.

`COc1cc2c(cc1OC)-c1cc(N3CCCc4ccccc43)nc(=O)n1CC2` [2-(3,4-dihydro-2H-quinolin-1-yl)-9,10-dimethoxy-6,7-dihydropyrimido[6,1-a]isoquinolin-4-one] gave a pIC50 of 4.60.

In the case of `CCOc1ccc(C2=Nn3c(nnc3-c3ccccc3OC)SC2)cc1` [6-(4-ethoxyphenyl)-3-(2-methoxyphenyl)-7H-[1,2,4]triazolo[3,4-b][1,3,4]thiadiazine], the pIC50 is 4.60.

The compound `COC(=O)Nc1nc2ccc(Sc3ccccc3)cc2[nH]1` [FENBENDAZOLE] showed a pIC50 of 4.40. This pIC50 is 0.20 log units lower than that of the compound before.

`CCn1c(=O)c(C(=O)Nc2nc3ccccc3[nH]2)c(O)c2ccccc21` [MLS000027148] showed a pIC50 of 4.40.

Regarding `N#C/C(=C/c1ccc(N2CCCCCC2)o1)c1ccc(F)cc1` [MLS000051438], the pIC50 was 4.96.

In the case of `CCOc1cccc(-c2nnc3n2N=C(c2cc(OC)ccc2OC)CS3)c1` [MLS000081451], the pIC50 is 4.65.

`COCCOC(=O)c1[nH]c2c(c1C)C(=O)CC(c1ccccc1)C2` (configuration not stated) [SMR000025505] gave a pIC50 of 4.40.

Regarding `CCCOc1ccc2nc(NC(=O)OC)[nH]c2c1` [SMR000058208], the pIC50 is 4.40.

In the case of `CN(C)c1nc(OCCNC(=O)COc2ccc(Cl)cc2Cl)nc(N2CCCCC2)n1` [SMR000072558], the negative-log IC50 (pIC50) was 4.40.

For the compound `COc1ccc(C2N(c3ccc(F)cc3)C(=O)C3CCCN32)cc1` (configuration not stated) [SMR000094164], the pIC50 was 4.40.

The same test, now with this note: pH 7.4; 23 °C.
As for `CCN(CC)c1ccc2c(Cl)c(Br)c(=O)oc2c1`, the pIC50 was 5.64.

Compound `CCC(NC(=O)Nc1nnc(C(F)(F)F)s1)(C(F)(F)F)C(F)(F)F` gave a pIC50 of 5.16.

Consider `O=C(Nc1ccc(-c2nc3ncccc3o2)cc1)c1ccc(Br)o1`, for which the pIC50 was 5.08.

With `O=S1(=O)C=C(Sc2nnc(-c3ccccc3)o2)c2ccccc21`, the pIC50 was 5.61.

`OCC12C=CC(O1)c1c2c(O)n(-c2ccc(-c3ccccc3)cc2)c1O` (configuration not stated) showed a pIC50 of 4.93.

For the compound `CCn1nc(-c2ccccc2)nc2c(=O)n(C)c(=O)nc1-2` [1-Ethyl-6-methyl-3-phenyl-1H-pyrimido[5,4-e][1,2,4]triazine-5,7-dione], the pIC50 is 6.24.

The compound `Cn1c(-c2c(N)n(C3CCCC3)c3nc4ccccc4nc23)nc2ccccc21` [1-cyclopentyl-3-(1-methyl-2-benzimidazolyl)-2-pyrrolo[3,2-b]quinoxalinamine] showed a negative-log IC50 (pIC50) of 5.62.

Turning to `CCn1nc(-c2cccs2)nc2c(=O)n(C)c(=O)nc1-2` [1-ethyl-6-methyl-3-thiophen-2-yl-pyrimido[5,4-e][1,2,4]triazine-5,7-dione], the pIC50 is 6.38. Compared with the last compound, the pIC50 is 0.76 log units higher.

Compound `COc1ccc(-n2nnnc2S(=O)(=O)CC(=O)N2CCCCC2)cc1` [2-[1-(4-methoxyphenyl)tetrazol-5-yl]sulfonyl-1-piperidin-1-ylethanone] gave a pIC50 of 5.58.

The compound `N#CCCS(=O)(=O)c1nnnn1-c1ccccc1` [3-(1-phenyltetrazol-5-yl)sulfonylpropanenitrile] gave a pIC50 of 5.54.

In the case of `COc1ccc(-c2cc(C(F)(F)F)nc(S(C)(=O)=O)n2)cc1OC` [4-(3,4-dimethoxyphenyl)-2-methylsulfonyl-6-(trifluoromethyl)pyrimidine], the pIC50 was 5.44.

`COc1cccc(N2CCN(c3ncnc4c3[nH]c3ccccc34)CC2C)c1` (configuration not stated) [4-[4-(3-methoxyphenyl)-3-methyl-1-piperazinyl]-5H-pyrimido[5,4-b]indole] had a pIC50 of 5.48.

`Cc1ccc(S(=O)(=O)Nc2cccc3ncccc23)s1` [5-methyl-N-quinolin-5-ylthiophene-2-sulfonamide] had a pIC50 of 5.96. Against the preceding compound, the pIC50 is 0.48 log units higher.

`Cc1ccc(-n2nc3c([n+]2[O-])CCc2c-3n[o+]n2[O-])cc1` [7-(4-methylphenyl)-3,6-dioxido-4,5-dihydrotriazolo[4,5-e][2,1,3]benzoxadiazole-3,6-diium] showed a pIC50 of 5.49.

Consider `COc1cccc(N2CCN(c3ncnc4c3[nH]c3ccc(F)cc34)CC2C)c1` (configuration not stated) [8-fluoranyl-4-[4-(3-methoxyphenyl)-3-methyl-piperazin-1-yl]-5H-pyrimido[5,4-b]indole], for which the pIC50 was 6.06.

As to `COc1ccccc1-c1nnc2n1N=C(c1ccc(O)c(O)c1)CS2` [(4E)-4-[3-(2-methoxyphenyl)-5H-[1,2,4]triazolo[3,4-b][1,3,4]thiadiazin-6-ylidene]-2-oxidanyl-cyclohexa-2,5-dien-1-one], the pIC50 was 4.40.

The compound `CC(=O)Nc1cc(OC(C)=O)c2nonc2c1OC(C)=O` [Acetic acid 7-acetoxy-5-acetylamino-benzo[1,2,5]oxadiazol-4-yl ester] had a pIC50 of 5.75.

With `CS(=O)(=O)c1nc(-c2ccccc2)cc(C(F)(F)F)n1` [MLS000044644], the pIC50 was 5.64.

As to `CS(=O)(=O)c1nc(-c2cccs2)cc(C(F)(F)F)n1` [MLS000044645], the pIC50 is 5.61.

Consider `CS(=O)(=O)c1nc(-c2ccco2)cc(C(F)(F)F)n1` [MLS000044646], for which the pIC50 was 5.48. This pIC50 and that of the compound before are within 0.2 log units of each other.

Regarding `COc1ccc(-n2c(O)cc(NCc3ccncc3)c2O)cc1` [MLS000099014], the pIC50 was 4.40.

On to `CC(=O)Oc1ccc(-n2c(O)c3c(c2O)C2(C)C=CC3(C)O2)cc1` [MLS000107813], for which the pIC50 was 5.13. Against the preceding compound, the pIC50 is 0.73 log units higher.

Take `O=C(Nc1ccc(N2CCOCC2)cc1)Nc1ccc2nc(-c3ccco3)c(-c3ccco3)nc2c1` [N-(2,3-di-2-furyl-6-quinoxalinyl)-N'-[4-(4-morpholinyl)phenyl]urea]: the pIC50 was 5.64.

Take `COc1cccc(N2CCN(c3ncnc4c3cnn4-c3ccc(C)cc3C)CC2)c1` [SMR000017007]: the pIC50 is 5.32.

Consider `CCCc1nnc2n1N=C(c1ccc(OC)c(OC)c1)CS2` [SMR000057783], for which the pIC50 was 4.40.

As for `Clc1ccc(-n2nnnc2Sc2ncnc3sccc23)cc1` [SMR000066808], the pIC50 is 5.31.

`COc1cc(NS(=O)(=O)c2ccc(C)cc2)c2ncccc2c1` [SMR000071147]: the pIC50 is 6.08.

`COc1cc2c(cc1OC)C1=C(C#N)CC=C(NS(=O)(=O)c3ccccc3)N1CC2` [SMR000092093] showed a pIC50 of 4.40.

On to `CSc1ccccc1NC=C1C(=O)CC(C)(C)CC1=O` [SMR000111352], for which the pIC50 is 5.73.

Take `COC(=O)/C(=C1/Oc2cc(C)oc(=O)c2S1)C(F)(F)F` [methyl (2E)-3,3,3-tris(fluoranyl)-2-(6-methyl-4-oxidanylidene-[1,3]oxathiolo[4,5-c]pyran-2-ylidene)propanoate]: the pIC50 was 5.91.
